Results from PubChem BioAssay AID1259407 (Chemical Carcinogenesis Research Information System (CCRIS), 2018).
Active and inactive are the calls of the source. No rule for the calls is given here.

System: CCRIS mutagenicity, Ames/micronucleus/aberration tests
Test: CCRIS mutagenicity studies

Measured: mutagenic call

O=[N+]([O-])C(Cl)(Br)Br
inactive: Test System: Ames Salmonella typhimurium, Strain/Indicator: RSJ100, Metabolic Activation: None, Method: Standard Plate inactive; negative | Test System: Ames Salmonella typhimurium, Strain/Indicator: RSJ100, Metabolic Activation: Rat, Liver, S-9, Aroclor, Method: Standard Plate inactive; negative | Test System: Ames Salmonella typhimurium, Strain/Indicator: TA98, Metabolic Activation: None, Method: Standard Plate inactive; negative | Test System: Ames Salmonella typhimurium, Strain/Indicator: TA98, Metabolic Activation: Rat, Liver, S-9, Aroclor, Method: Standard Plate inactive; negative | Test System: Ames Salmonella typhimurium, Strain/Indicator: TA100, Metabolic Activation: None, Method: Standard Plate inactive; negative | Test System: Ames Salmonella typhimurium, Strain/Indicator: TA100, Metabolic Activation: Rat, Liver, S-9, Aroclor, Method: Standard Plate inactive; negative | Test System: Ames Salmonella typhimurium, Strain/Indicator: TA104, Metabolic Activation: None, Method: Standard Plate inactive; negative | Test System: Ames Salmonella typhimurium, Strain/Indicator: TA104, Metabolic Activation: Rat, Liver, S-9, Aroclor, Method: Standard Plate inactive; negative | Test System: Ames Salmonella typhimurium, Strain/Indicator: TPT100, Metabolic Activation: None, Method: Standard Plate inactive; negative

O=C(O)/C=C/c1ccccc1[N+](=O)[O-]
inactive: Test System: AMES SALMONELLA TYPHIMURIUM, Strain/Indicator: TA98, Metabolic Activation: NONE, Method: PREINCUBATION inactive; negative | Test System: AMES SALMONELLA TYPHIMURIUM, Strain/Indicator: TA98, Metabolic Activation: NONE, Method: STANDARD PLATE inactive; negative | Test System: AMES SALMONELLA TYPHIMURIUM, Strain/Indicator: TA98, Metabolic Activation: RAT, LIVER, S-9, AROCLOR 1254, Method: STANDARD PLATE inactive; negative | Test System: AMES SALMONELLA TYPHIMURIUM, Strain/Indicator: TA98, Method: PREINCUBATION inactive; negative | Test System: AMES SALMONELLA TYPHIMURIUM, Strain/Indicator: TA100, Metabolic Activation: NONE, Method: PREINCUBATION inactive; negative | Test System: AMES SALMONELLA TYPHIMURIUM, Strain/Indicator: TA100, Metabolic Activation: NONE, Method: STANDARD PLATE inactive; negative | Test System: AMES SALMONELLA TYPHIMURIUM, Strain/Indicator: TA100, Metabolic Activation: RAT, LIVER, S-9, AROCLOR 1254, Method: PREINCUBATION inactive; negative | Test System: AMES SALMONELLA TYPHIMURIUM, Strain/Indicator: TA100, Metabolic Activation: RAT, LIVER, S-9, AROCLOR 1254, Method: STANDARD PLATE inactive; negative | Test System: AMES SALMONELLA TYPHIMURIUM, Strain/Indicator: TA100, Method: PREINCUBATION inactive; negative | Test System: AMES SALMONELLA TYPHIMURIUM, Strain/Indicator: TA1535, Metabolic Activation: NONE, Method: PREINCUBATION inactive; negative | Test System: AMES SALMONELLA TYPHIMURIUM, Strain/Indicator: TA1535, Method: PREINCUBATION inactive; negative | Test System: AMES SALMONELLA TYPHIMURIUM, Strain/Indicator: TA1537, Metabolic Activation: NONE, Method: PREINCUBATION inactive; negative | Test System: AMES SALMONELLA TYPHIMURIUM, Strain/Indicator: TA1537, Method: PREINCUBATION inactive; negative | Test System: AMES SALMONELLA TYPHIMURIUM, Strain/Indicator: TA1538, Metabolic Activation: NONE, Method: PREINCUBATION inactive; negative | Test System: AMES SALMONELLA TYPHIMURIUM, Strain/Indicator: TA1538, Method: PREINCUBATION inactive; negative
